Experimental data as given in PMC7464559, “Synthesis, Optimization, Antifungal Activity, Selectivity, and CYP51 Binding of New 2-Aryl-3-azolyl-1-indolyl-propan-2-ols” (Pharmaceuticals, 2020).
In brackets after ≈: the same amount, converted by molar mass.

Key:
[1] = tested on: human fetal lung fibroblast (MRC-5) cells; set-up: method as in PMID 31899979; conditions: previously determined ref 28, read-out: Cytotoxicity IC50 on MRC-5 cells; cited from earlier work
[2] = biological target: T1, retinoic acid 4-hydroxylase (CYP26A1) (Homo sapiens, UniProt O43174); experiment: MCF-7 cellular assay for inhibition of metabolism of all-trans retinoic acid; type: cell-based; conditions: mean (±5%) of two experiments
T1 construct: endogenous in cells; host or cells: MCF-7 human breast cancer cells
T1 sequence (O43174 1-497): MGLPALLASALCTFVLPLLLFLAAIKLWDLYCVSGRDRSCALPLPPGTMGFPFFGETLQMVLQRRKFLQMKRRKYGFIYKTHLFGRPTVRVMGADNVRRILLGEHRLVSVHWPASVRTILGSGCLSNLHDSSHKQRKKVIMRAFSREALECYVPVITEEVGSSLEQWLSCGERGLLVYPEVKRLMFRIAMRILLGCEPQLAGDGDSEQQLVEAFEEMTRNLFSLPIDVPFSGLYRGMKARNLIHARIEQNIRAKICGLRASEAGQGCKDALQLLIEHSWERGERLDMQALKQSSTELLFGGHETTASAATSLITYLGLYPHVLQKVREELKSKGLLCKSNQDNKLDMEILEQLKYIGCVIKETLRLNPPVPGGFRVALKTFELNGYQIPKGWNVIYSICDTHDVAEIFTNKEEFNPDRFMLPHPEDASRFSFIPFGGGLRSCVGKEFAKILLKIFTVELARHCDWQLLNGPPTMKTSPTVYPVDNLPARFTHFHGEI
Description: The HPLC system was equipped with a high-pressure pump (Milton–Roy pump, Stone, UK), injector with a 50 μL loop connected to a beta-RAM radioactivity detector, connected to a Compaq™ computer running Laura® data acquisition and analysis software. This enabled online detection and quantification of radioactive peaks. The 10 μM C18 μBondapak™ 3.9 × 300 mm HPLC column (Waters, UK) was used for the all-trans retinoic acid metabolism studies. The HPLC column operating at an ambient temperature was used to separate the metabolites, which were eluted with acetonitrile/1% ammonium acetate in water/acetic acid (75:25:0.1, v/v/v) at a flow rate of 1.9 mL/min. The Ecoscint™ was used as the flow scintillation fluid.
The separated [^3H]-metabolites were quantitatively calculated from the areas under the curves.

C. krusei = experiment: Anti-Candida in vitro assay, C. krusei strains; type: cell-based; conditions: Pichia kudriavzevii; span over the C. krusei strains tested
Description: Test fungal strains were obtained from the American Type Culture Collection (ATCC) or were clinical isolates from the Laboratory of Parasitology and Medical Mycology, Centre Hospitalier Universitaire (CHU) of Nantes. The strains were maintained on Sabouraud agar slants and were subcultured 24 h before used. The activity of the target compounds 8a–g and 11a–m was determined by the method previously described. Briefly, molecules were diluted in RPMI 1640 medium supplemented with 0.165 M morpholinopropanesulphonic acid (Sigma-Aldrich, Saint-Quentin Fallavier, France), 2% glucose, and antibiotics. Candida suspensions were prepared in RPMI 1640 medium (Sigma-Aldrich, Saint-Quentin Fallavier, France) adjusted to give a final concentration of 10^3 cells/mL, and a 96-well microplate (Nunc, D. Dutscher, Brumath, France) was seeded with 100 µL. Each concentration of molecules (100 µL) to be tested was added (in triplicate) and plates were incubated at 37 °C for 24 h. The cellular viability was evaluated on the Fluorolite 1000 (Dynatech, France) with an excitation at 550 nm and an emission at 590 nm after a 4 h incubation with 10 µL of Alamar Blue®. […] MIC was expressed as the mean of the triplicate values. KTC and FLC were used as standards.

Row | Compound | melting point | IC50 [1] | IC50 [2] | MIC (C. krusei)
1 | OC(Cn1cncn1)(Cn1ccc2ccccc21)c1ccc(Cl)cc1Cl (centres unmarked) [Compound 8g, 2-(2,4-Dichlorophenyl)-3-(1H-indol-1-yl)-1-(1H-1,2,4-triazol-1-yl)-propan-2-ol] | 161 to 162 °C | 35 µM | – | –
2 | O[C@@](Cn1cncn1)(Cn1ccc2ccccc21)c1ccc(Cl)cc1Cl [(+)-(R)-8g] | – | – | 34 µM | –
3 | O[C@](Cn1cncn1)(Cn1ccc2ccccc21)c1ccc(Cl)cc1Cl [(−)-(S)-8g] | – | – | 18 µM | 0.039 to 0.167 µg/mL (≈ 0.101 to 0.431 µM)
